# Experimental data published in patent publication US9061984B2 (University of Louisville Research Foundation, Inc., priority 2008, dated 2015).
# Read-outs that look alike come from different tables or passages of the source.
# Legend:
# peritoneal macrophages = experiment: Toxicity to peritoneal macrophages (Trypan Blue count); assay type: cell-based, BALB/C mouse; details: Mus musculus, Peritoneal macrophage, 48 h; Table 7; read-out: IC50 Macrophage
# Procedure: Peritoneal macrophages were prepared as follows. Non-inflammatory macrophages (10^6) were collected from each BALB/C mouse. The cells adhered at 37° C. after 2 h under 5% CO2 in a CO2 incubator. The plates were then rinsed two to three times with 0.5 mL of RPMI+buffer MOPS without fetal calf serum to eliminate non-adhering cells. The supernatant on the plates was replaced by fresh medium (RPMI+glutamine+FCS+antibiotics), 0.5 mL of medium per well. To determine the toxicity of the compounds to macrophages, dilutions of compounds were added on a part of the macrophages prepared above. […] The medium was then removed and 1 μL of sterile Trypan Blue was added. Cover glasses N° 1 were left where cells were plated and then the number of macrophages in a microscope was determined with a haemocytometer. All experiments were performed in triplicate.
# [1] = Cytotoxicity on VERO cells (MTT), anti-T. cruzi study; details: African green monkey, VERO cells, IC50 - VERO Cytotoxicity, Table 2
# VERO cells = experiment: as above; details: Chlorocebus sabaeus, Vero
# [2] = test system: Trypanosoma cruzi (Tulahuen C4); experiment: In vitro anti-T. cruzi activity (β-galactosidase CPRG colorimetric assay in VERO monolayer); assay type: cell-based; details: Trypanosoma cruzi, TULAHUEN, Vero; for inhibition at 10 µg/mL: 120 h, 10 μg/mL of each compound, 120 hours, read-out: T. cruzi Inhib. (%)
# [3] = test system: axenic amastigotes of L. amazonensis (strain MHOM/BR/76/LTB-012); experiment: microbe, parasite or virus in culture; details: Leishmania amazonensis, 72 h, read-out: IC50 L. amazonensis
# [4] = Table 2, read-out: IC50 - T. cruzi
# [5] = Table 3, read-out: IC50 T. cruzi
compound,measurement,setting,value
"C=CCOc1cc(OC)c(C(=O)/C=C/c2ccccc2)c(OCC=C)c1 [Compound I-08, (2E)-1-[2-Methoxy-4,6-bis(2-propenyloxy)phenyl]-3-(phenyl)-2-propen-1-one]",IC50,peritoneal macrophages,14.8 µM
same,IC50,[1],6 µg/mL
same,IC50,VERO cells; read-out: IC50 VERO,17.1 µM
same,inhibition at 10 µg/mL,[2],71.5%
same,IC50,[2]; [4],6.7 µg/mL
same,IC50,[2]; [5],17.1 µM
same,IC50,[3],9.4 µM
"C=CCOc1cc(OC)c(C(=O)/C=C/c2cccc(OC)c2)c(OCC=C)c1 [Compound I-11, (2E)-1-[2-Methoxy-4,6-bis(2-propenyloxy)phenyl]-3-(3-methoxyphenyl)-2-propen-1-one]",IC50,peritoneal macrophages,13.1 µM
same,IC50,[1],54 µg/mL
same,IC50,"VERO cells; read-out: IC50 VERO, Table 3",142 µM
same,inhibition at 10 µg/mL,[2],72.4%
same,IC50,[2]; [4],5.37 µg/mL
same,IC50,[2]; [5],14.2 µM
same,IC50,[3],8.7 µM
"C=CCOc1cc(OC)c(C(=O)/C=C/c2ccc([N+](=O)[O-])cc2)c(OCC=C)c1 [Compound I-13, (2E)-1-[2-Methoxy-4,6-bis(2-propenyloxy)phenyl]-3-(4-nitrophenyl)-2-propen-1-one]",IC50,peritoneal macrophages,13.2 µM
same,IC50,[1],5 µg/mL
same,IC50,"VERO cells; read-out: IC50 VERO, Table 3",12.6 µM
same,inhibition at 10 µg/mL,[2],68.6%
same,IC50,[2]; [4],1.62 µg/mL
same,IC50,[2]; [5],4.1 µM
same,IC50,[3],8.3 µM
"C=CCOc1cc(OC)c(C(=O)/C=C/c2ccc(Cl)cc2)c(OCC=C)c1 [Compound I-14, (2E)-3-(4-Chlorophenyl)-1-[2-methoxy-4,6-bis(2-propenyloxy)phenyl]-2-propen-1-one]",IC50,peritoneal macrophages,13 µM
same,IC50,[1],4 µg/mL
same,IC50,"VERO cells; read-out: IC50 VERO, Table 3",10.4 µM
same,inhibition at 10 µg/mL,[2],66.3%
same,IC50,[2]; [4],3.3 µg/mL
same,IC50,[2]; [5],8.6 µM
same,IC50,[3],9.4 µM
"C=CCOc1cc(OC)c(C(=O)/C=C/c2ccccc2F)c(OCC=C)c1 [Compound I-15, (2E)-3-(2-Fluorophenyl)-1-[2-methoxy-4,6-bis(2-propenyloxy)phenyl]-2-propen-1-one]",IC50,peritoneal macrophages,13.3 µM
same,IC50,[1],6 µg/mL
same,IC50,"VERO cells; read-out: IC50 VERO, Table 3",16.3 µM
same,inhibition at 10 µg/mL,[2],66.5%
same,IC50,[2]; [4],2.29 µg/mL
same,IC50,[2]; [5],6.2 µM
same,IC50,[3],9.5 µM
